Laboratory results: ChEMBL document CHEMBL3822436, “New polyhydroxylated flavon-3-ols and 3-hydroxy-2-styrylchromones: synthesis and ROS/RNS scavenging activities” (Eur J Med Chem, 2016)

How the values were obtained:
Type in all cases: physicochemical
[1] = Antioxidant activity assessed as inhibition of peroxynitrite-induced oxidation of DHR to rhodamine-123 measured after 2 mins in presence of NaHCO3 by fluorimetric analysis
[2] = Antioxidant activity assessed as inhibition of peroxynitrite-induced oxidation of DHR to rhodamine-123 measured after 2 mins by fluorimetric analysis
[3] = Antioxidant activity assessed as inhibition of peroxyl radical-induced oxidation of fluorescein measured as trolox equivalent by ORAC assay
[4] = Antioxidant activity assessed as inhibition of HOCl-induced oxidation of non-fluorescent DHR to fluorescent rhodamine-123 by fluorescence-based assay
[5] = Antioxidant activity assessed as inhibition of superoxide-induced NBT reduction measured during 2 mins by spectrophotometric analysis
[6] = Antioxidant activity assessed as inhibition of hydrogen peroxide-induced lucigenin oxidation at 1000 uM by chemiluminescence-based assay
[7] = Antioxidant activity assessed as inhibition of singlet oxygen-induced oxidation of DHR to fluorescent rhodamine-123 measured after 30 mins by fluorescence microplate screening assay; conditions: for inhibition (INH): 0.5 h
[8] = Antioxidant activity assessed as inhibition of nitric oxide-induced oxidation of DAF-2 to DAF-2T measured after 30 mins by fluorimetric analysis
[9] = Antioxidant activity assessed as inhibition of superoxide-induced NBT reduction at 100 uM measured during 2 mins by spectrophotometric analysis
[10] = Antioxidant activity assessed as inhibition of peroxynitrite-induced oxidation of DHR to rhodamine-123 at 5 uM measured after 2 mins in presence of NaHCO3 by fluorimetric analysis

IC50 [1]	IC50 [2]	IC50 [4]	IC50 [5]	inhibition (INH) [6]	IC50 [7]	inhibition (INH) [7]	IC50 [8]	inhibition (INH) [9]	inhibition (INH) [10]	Structure (SMILES)	Activity [3]
1030 nM	590 nM	3300 nM	58000 nM	Not Active	1300 nM	Dose-dependent effect	58 nM			COc1ccc2c(=O)c(O)c(-c3ccc(O)c(O)c3)oc2c1OC	
980 nM	290 nM	1420 nM	30000 nM	Not Active	1000 nM	Dose-dependent effect	670 nM			O=c1c(O)c(/C=C/c2ccc(O)c(O)c2)oc2c(O)c(O)ccc12	
2500 nM	710 nM	6300 nM	21000 nM	Not Active	2400 nM	Dose-dependent effect	55 nM			COc1ccc(-c2oc3c(O)c(O)ccc3c(=O)c2O)cc1OC	
1300 nM	570 nM	820 nM		Not Active	1200 nM	Dose-dependent effect	830 nM	49%		COc1ccc2c(=O)c(O)c(/C=C/c3ccc(O)c(O)c3)oc2c1OC	
930 nM	910 nM	2400 nM	19000 nM	Not Active	4200 nM	Dose-dependent effect	120 nM			O=c1c(O)c(-c2ccc(O)c(O)c2)oc2c(O)c(O)ccc12	
	570 nM	910 nM	35000 nM	Not Active	1000 nM	Dose-dependent effect	1000 nM		Not Active	COc1ccc(/C=C/c2oc3c(O)c(O)ccc3c(=O)c2O)cc1OC	

Structure (SMILES)	IC50 [1]	IC50 [2]	IC50 [4]	IC50 [5]	inhibition (INH) [6]	IC50 [7]	inhibition (INH) [7]	IC50 [8]	inhibition (INH) [9]	inhibition (INH) [10]	Activity [3]
O=c1c(O)c(-c2ccc(O)c(O)c2)oc2cc(O)cc(O)c12 [QUERCETIN]	1100 nM	760 nM	800 nM	67000 nM	Not Active						0.49 uMequiv/uM
